# Results: patent publication US20080280996A1, “Use of Carophyllenes in the Manufacture of Medicaments and Treatment of Bodily Conditions of Inflammation and Inflammatory Pain” (priority 2004, published 2008)
# Tested on: carrageenin-induced inflammatory nociception in the hind paw
# Assay: Inflammatory nociception induced by carrageenin (von Frey filament)
# Format: in vivo
# Settings: mice, carrageenin 300 μg per paw intraplantar; alpha-humulene 50 mg/kg orally or paracetamol 600 mg/kg orally, 1 h before; evaluated after 3, 4 and 6 hours
# Procedure: The evaluation methodology used in this test is described by Vaz et al. in J. Pharmacol. Exp. Ther. 278:304-312, 1996. Male mice (25-35 g) were systemically (orally) treated with alpha-humulene, 50 mg/kg, administered 1 hour before the experiment. Animals treated with 0.9% saline solution (0.1 ml/10 g) were used as the control. Another group of animals was treated with paracetamol (600 mg/kg, orally, administered 1 h before the treatment), that was used as positive control. For the induction of inflammatory pain, the animals received an intraplantar injection of 0.05 ml of carrageenin (300 μg per paw) at the plantar surface of the right hind paw. […] The nociception was evaluated with a Von Frey filament (0.4 g) after 3, 4 and 6 hours. […] The filament was applied to the right hind paw, complying with the criteria of (1) the application was perpendicular to the plantar surface, with enough pressure to cause the filament to bend, thus obtaining total pressure; (2) the animals were evaluated when the four paws were touching the screen; (3) the paw withdrawal response was considered when the animal removed the paw entirely from the support screen; (4) each animal was stimulated 10 consecutive times, each stimulation lasting 1 second; (5) each paw withdrawal event was considered as 10% of the response, with 10 withdrawal events corresponding to 100% response. […]
smiles,measurement,value
"CC(=O)Nc1ccc(O)cc1 [paracetamol, reference compound]",inflammatory nociception (paw withdrawal response to 0.4 g von Frey filament),reduced the inflammatory nociception
